Values after ≈ are worked out from the molar mass of the structure shown. Values belong to the compound of their own block, whether it stands above or below them. Active and inactive are the calls of the source. No cut-off for these calls is given here.
Experiments:
[1] = molecular target: T1, Cannabinoid receptor 1 (Homo sapiens, UniProt P21554); test: Antagonist activity at human CB1 receptor expressed in CHO-K1 cell membrane in presence of CP55940 by GTP-gamma-S assay; type: functional, cell membranes
[2] = Lipophilicity, logD of compound by chromatographic analysis; type: physicochemical
[3] = molecular target: Cannabinoid receptor 2 (Homo sapiens, UniProt P34972); test: Inverse agonist activity at human CB2 receptor expressed in CHO-K1 cell membrane in presence of CP55940 by GTP-gamma-S assay; type: functional, cell membranes
[4] = molecular target: T1, Cannabinoid receptor 1; test: Inverse agonist activity at human CB1 receptor expressed in African green monkey COS7 cells co-expressing G-protein in presence of CP55940 by IP3 assay; type: functional, cell membranes, Membrane
[5] = molecular target: T1, Cannabinoid receptor 1; test: Inverse agonist activity at human CB1 receptor expressed in CHO-K1 cell membrane by GTP-gamma-S assay; type: functional, cell membranes
[6] = Efflux ratio of permeability in human Caco-2 cells; type: ADME, cell-based
[7] = Cmax in NMRI mouse at 10 mg/kg, po; type: ADME, organism-based; design: dose 10 mg/kg, route po; conditions: in vivo
[8] = Clearance in rat hepatocytes assessed per million cells; type: ADME, cell-based, Hepatocyte
[9] = molecular target: CYP2C9 (Homo sapiens, UniProt P11712); test: Inhibition of CYP2C9 (unknown origin) at 10 uM relative to control; type: ADME
[10] = Oral bioavailability in NMRI mouse at 10 mg/kg; type: ADME, organism-based; conditions: in vivo
[11] = Subchronic toxicity in DIO mouse assessed as reduction in body weight at 10 mg/kg, po measured after 7 days; type: organism-based; design: scale not given: the % may be the effect or the level left; conditions: in vivo, 168 h, time 7 day
[12] = Clearance in NMRI mouse at 2 mg/kg, iv; type: ADME, organism-based; conditions: in vivo
[13] = Drug concentration in DIO mouse liver at 10 mg/kg, po measured for 6 hrs; type: ADME, organism-based; conditions: read-out: Drug uptake
[14] = system: Liver; test: In vivo inhibition of CB1 receptor in liver of lean C57BL/6J mouse by autoradiography; type: functional, organism-based
[15] = Drug uptake in brain of lean C57BL/6J mouse by autoradiography; type: ADME, tissue-based; conditions: in vivo
[16] = Half life in NMRI mouse at 30 mg/kg, po; type: ADME, organism-based; conditions: in vivo
[17] = Drug concentration in DIO mouse plasma at 10 mg/kg, po measured for 6 hrs; type: ADME, organism-based
[18] = AUC (infinity) in NMRI mouse at 10 mg/kg, po; type: ADME, organism-based; design: dose 10 mg/kg, route po; conditions: in vivo
[19] = Tmax in NMRI mouse at 30 mg/kg, po; type: ADME, organism-based; conditions: in vivo
[20] = Drug concentration in DIO mouse adipose tissue at 10 mg/kg, po measured for 6 hrs; type: ADME, organism-based; conditions: read-out: Drug uptake
[21] = molecular target: T2, Glucose-dependent insulinotropic receptor (Homo sapiens) (UniProt Q8TDV5); test: Inhibition of GPR119 (unknown origin) at 1 uM relative to control
T2 sequence (whole entry): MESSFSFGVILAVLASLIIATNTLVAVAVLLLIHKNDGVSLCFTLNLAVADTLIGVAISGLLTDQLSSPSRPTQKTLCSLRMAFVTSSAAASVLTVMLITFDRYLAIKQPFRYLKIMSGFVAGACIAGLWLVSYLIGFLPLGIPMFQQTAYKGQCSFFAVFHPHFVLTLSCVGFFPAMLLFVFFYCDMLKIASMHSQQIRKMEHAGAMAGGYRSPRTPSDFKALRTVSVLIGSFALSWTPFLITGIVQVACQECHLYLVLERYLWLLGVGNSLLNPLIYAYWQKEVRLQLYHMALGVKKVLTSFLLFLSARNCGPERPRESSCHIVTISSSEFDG

[22] = AUC (infinity) in NMRI mouse at 30 mg/kg, po; type: ADME, organism-based; design: dose 30 mg/kg, route po; conditions: in vivo
[23] = Oral bioavailability in NMRI mouse at 30 mg/kg; type: ADME, organism-based; conditions: in vivo
[24] = Drug concentration in NMRI mouse brain relative to plasma concentration; type: ADME, tissue-based
[25] = Cmax in NMRI mouse at 30 mg/kg, po; type: ADME, organism-based; design: dose 30 mg/kg, route po; conditions: in vivo
[26] = molecular target: G-protein coupled receptor 55 (Homo sapiens) (UniProt Q9Y2T6); test: Inhibition of GPR55 (unknown origin) at 1 uM relative to control
[27] = Drug concentration in DIO mouse brain at 10 mg/kg, po measured for 6 hrs; type: ADME, organism-based; conditions: read-out: Drug uptake
[28] = Tmax in NMRI mouse at 10 mg/kg, po; type: ADME, organism-based; conditions: in vivo
[29] = Solubility of compound; type: physicochemical
[30] = Drug concentration in DIO mouse brain at 10 mg/kg, po measured for 24 hrs; type: ADME, organism-based
[31] = AUC (infinity) in NMRI mouse at 2 mg/kg, iv; type: ADME, organism-based; design: dose 2 mg/kg, route iv; conditions: in vivo
[32] = Drug concentration in DIO mouse brain at 10 mg/kg, po measured for 6 hrs relative to plasma concentration; type: ADME, organism-based
[33] = Protein binding in NMRI mouse plasma; type: ADME, cell-free; conditions: read-out: PPB
[34] = In vivo inverse agonist activity at CB1 receptor in DIO mouse assessed as efficacy at 10 mg/kg, po measured after 6 hrs; type: functional
[35] = Half life in NMRI mouse at 10 mg/kg, po; type: ADME, organism-based; conditions: in vivo
[36] = Volume of distribution at steady state in NMRI mouse at 2 mg/kg, iv; type: ADME, organism-based; conditions: in vivo, read-out: Vdss
[37] = Drug concentration in DIO mouse adipose tissue assessed as fold increase at 10 mg/kg, po measured for 6 hrs relative to plasma concentration; type: ADME, organism-based; conditions: read-out: FC
[38] = Half life in NMRI mouse at 2 mg/kg, iv; type: ADME, organism-based; conditions: in vivo
[39] = molecular target: hERG (Homo sapiens, UniProt Q12809); test: Inhibition of hERG at 10 uM by patch clamp assay relative to control; type: toxicity
[40] = Drug concentration in DIO mouse adipose tissue at 10 mg/kg, po measured for 6 hrs relative to plasma concentration; type: ADME, organism-based; conditions: other tissue

Cannabinoid receptor 2, sequence (P34972 whole entry): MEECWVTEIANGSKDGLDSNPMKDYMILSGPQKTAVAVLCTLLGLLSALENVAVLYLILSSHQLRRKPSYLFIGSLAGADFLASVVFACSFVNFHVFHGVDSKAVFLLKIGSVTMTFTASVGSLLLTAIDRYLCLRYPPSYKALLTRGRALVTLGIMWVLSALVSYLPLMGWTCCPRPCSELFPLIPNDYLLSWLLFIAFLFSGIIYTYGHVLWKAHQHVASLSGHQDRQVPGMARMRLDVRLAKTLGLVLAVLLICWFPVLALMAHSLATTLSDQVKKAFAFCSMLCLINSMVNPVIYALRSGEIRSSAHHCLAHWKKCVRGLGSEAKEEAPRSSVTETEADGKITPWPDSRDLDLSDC
T1 sequence (P21554 whole entry): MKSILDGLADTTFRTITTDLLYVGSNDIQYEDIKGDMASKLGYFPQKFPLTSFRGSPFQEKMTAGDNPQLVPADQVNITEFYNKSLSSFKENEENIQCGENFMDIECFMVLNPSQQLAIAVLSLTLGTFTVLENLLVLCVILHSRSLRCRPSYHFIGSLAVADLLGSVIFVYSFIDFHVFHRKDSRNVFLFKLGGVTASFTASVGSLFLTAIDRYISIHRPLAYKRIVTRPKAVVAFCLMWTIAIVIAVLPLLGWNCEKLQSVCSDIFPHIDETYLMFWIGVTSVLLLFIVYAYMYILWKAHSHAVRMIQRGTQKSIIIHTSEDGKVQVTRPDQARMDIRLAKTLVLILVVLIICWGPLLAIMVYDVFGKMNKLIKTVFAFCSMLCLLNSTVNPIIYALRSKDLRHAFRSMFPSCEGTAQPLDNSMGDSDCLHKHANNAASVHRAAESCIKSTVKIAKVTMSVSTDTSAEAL
CYP2C9, sequence (P11712 whole entry): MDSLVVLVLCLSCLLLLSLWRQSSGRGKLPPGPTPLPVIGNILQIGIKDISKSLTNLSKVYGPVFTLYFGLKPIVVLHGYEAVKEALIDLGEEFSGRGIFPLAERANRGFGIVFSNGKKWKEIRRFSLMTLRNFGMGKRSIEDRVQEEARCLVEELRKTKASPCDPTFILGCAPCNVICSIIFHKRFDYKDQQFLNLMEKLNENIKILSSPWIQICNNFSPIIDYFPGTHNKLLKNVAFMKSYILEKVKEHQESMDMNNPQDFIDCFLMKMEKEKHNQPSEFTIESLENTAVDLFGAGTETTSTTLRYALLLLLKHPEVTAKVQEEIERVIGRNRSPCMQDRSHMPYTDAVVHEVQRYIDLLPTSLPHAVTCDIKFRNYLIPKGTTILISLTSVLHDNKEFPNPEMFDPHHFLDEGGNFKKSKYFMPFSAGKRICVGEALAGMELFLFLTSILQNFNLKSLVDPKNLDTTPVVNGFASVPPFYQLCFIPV
hERG, sequence (Q12809 whole entry): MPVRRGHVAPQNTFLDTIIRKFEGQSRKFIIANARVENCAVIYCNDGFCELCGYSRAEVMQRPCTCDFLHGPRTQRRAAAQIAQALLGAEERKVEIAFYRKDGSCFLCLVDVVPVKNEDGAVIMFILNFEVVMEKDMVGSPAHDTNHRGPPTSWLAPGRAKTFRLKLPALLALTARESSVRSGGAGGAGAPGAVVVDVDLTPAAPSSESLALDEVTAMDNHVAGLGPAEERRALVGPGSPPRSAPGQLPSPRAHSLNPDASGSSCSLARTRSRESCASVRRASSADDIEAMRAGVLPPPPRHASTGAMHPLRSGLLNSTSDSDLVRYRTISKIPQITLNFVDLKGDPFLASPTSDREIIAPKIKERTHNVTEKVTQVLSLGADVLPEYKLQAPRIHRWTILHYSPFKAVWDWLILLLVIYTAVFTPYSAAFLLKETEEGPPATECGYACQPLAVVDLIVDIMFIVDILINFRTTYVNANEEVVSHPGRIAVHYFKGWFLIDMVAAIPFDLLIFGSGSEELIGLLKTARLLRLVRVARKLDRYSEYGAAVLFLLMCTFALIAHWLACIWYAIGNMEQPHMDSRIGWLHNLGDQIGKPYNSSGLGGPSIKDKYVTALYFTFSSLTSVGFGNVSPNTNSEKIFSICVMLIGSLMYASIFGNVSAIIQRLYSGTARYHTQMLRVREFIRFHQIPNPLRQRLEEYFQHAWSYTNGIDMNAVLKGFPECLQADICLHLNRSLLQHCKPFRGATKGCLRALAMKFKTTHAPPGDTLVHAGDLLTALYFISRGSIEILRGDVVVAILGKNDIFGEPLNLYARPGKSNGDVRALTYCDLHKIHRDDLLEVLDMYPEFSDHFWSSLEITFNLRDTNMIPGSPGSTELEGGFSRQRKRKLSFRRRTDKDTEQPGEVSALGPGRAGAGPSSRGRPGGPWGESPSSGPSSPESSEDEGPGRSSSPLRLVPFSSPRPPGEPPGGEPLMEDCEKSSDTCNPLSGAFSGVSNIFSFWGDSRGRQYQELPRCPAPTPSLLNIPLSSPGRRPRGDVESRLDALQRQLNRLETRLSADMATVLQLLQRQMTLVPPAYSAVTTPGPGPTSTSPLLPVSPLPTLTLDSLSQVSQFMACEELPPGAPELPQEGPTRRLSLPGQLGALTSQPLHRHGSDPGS
G-protein coupled receptor 55 (Homo sapiens), sequence (Q9Y2T6 whole entry): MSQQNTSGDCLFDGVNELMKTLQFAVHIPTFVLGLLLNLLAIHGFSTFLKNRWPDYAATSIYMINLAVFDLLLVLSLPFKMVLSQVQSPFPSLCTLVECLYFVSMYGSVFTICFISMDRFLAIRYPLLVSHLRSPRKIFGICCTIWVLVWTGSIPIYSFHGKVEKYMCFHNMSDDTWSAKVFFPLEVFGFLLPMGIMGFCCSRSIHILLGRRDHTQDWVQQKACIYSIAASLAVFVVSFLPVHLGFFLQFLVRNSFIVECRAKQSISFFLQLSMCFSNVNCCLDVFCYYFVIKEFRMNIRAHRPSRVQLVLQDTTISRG

Structure (SMILES): C[C@@H](NC(=O)c1nn(-c2ccccc2Cl)c(-c2ccc(Cl)cc2)c1Cc1nn[nH]n1)c1ccc(C(F)(F)F)cc1
IC50 [1]: 0.0067 µM
efflux ratio [6]: 1
chromatographic logD [2]: 2.8
Cmax [7]: 13 µM
CLH [8]: 16 µL/min/1e6 cells
inhibition at 10 µM [9]: 39%
bioavailability [10]: 95%
Activity [11]: 11.4%
clearance [12]: 2.6 mL/min/kg
concentration at 6 h [13]: 47 µM
inhibition [14]: Active
Drug uptake [15]: Active
half-life [16]: 4 h
IC50 [3]: 4.5 µM
concentration at 6 h [17]: 6.5 µM
AUC(0-inf) [18]: 104 µM·h
Tmax [19]: 2 h
concentration at 6 h [20]: 1.2 µM
inhibition [21]: < 30%
AUC(0-inf) [22]: 297 µM·h
bioavailability [23]: 91%
Drug uptake [24]: ~ 1%
IC50 [4]: 0.0033 µM
IC50 [5]: 0.024 µM
Cmax [25]: 41 µM
inhibition [26]: < 30%
concentration at 6 h [27]: 0.08 µM
Tmax [28]: 2 h
solubility [29]: 250 µM (≈ 147 µg/mL)
concentration at 24 h ([30]; brain, read-out: Drug uptake): 0.02 µM
AUC(0-inf) [31]: 22 µM·h
Drug uptake [32]: 1.3%
fraction unbound [33]: < 0.01
Efficacy [34]: 11%
half-life [35]: 3.1 h
Vd [36]: 0.4 L/kg
Kp at 6 h [37]: 5
half-life [38]: 2.5 h

Structure (SMILES): NC(=O)Cc1c(C(=O)NC2CCN(C(=O)C3CC3)CC2)nn(-c2ccccc2Cl)c1-c1ccc(Cl)cc1
CLH [8]: 18 µL/min/1e6 cells
solubility [29]: 81 µM (≈ 43.8 µg/mL)
inhibition at 10 µM [39]: 24%

Structure (SMILES): O=C(c1nn(-c2ccccc2Cl)c(-c2ccc(Cl)cc2)c1Cc1nn[nH]n1)N1CCC(Oc2cccc(F)c2)CC1
chromatographic logD [2]: 2.4
CLH [8]: 45 µL/min/1e6 cells
inhibition at 10 µM [9]: 14%
IC50 [4]: 0.033 µM
IC50 [5]: 0.13 µM
solubility [29]: 500 µM (≈ 296 µg/mL)

Structure (SMILES): O=C(c1nn(-c2ccccc2Cl)c(-c2ccc(Cl)cc2)c1Cc1nn[nH]n1)N1CCC(Oc2ccc(OC(F)(F)F)cc2)CC1
chromatographic logD [2]: 3
CLH [8]: 14 µL/min/1e6 cells
inhibition at 10 µM [9]: 48%
IC50 [4]: 0.026 µM
IC50 [5]: 0.064 µM
solubility [29]: 115 µM (≈ 75.7 µg/mL)

More lines, in order of falling IC50 [4], values ahead:

chromatographic logD [2]: 2.7
CLH [8]: 15 µL/min/1e6 cells
inhibition at 10 µM [9]: 35%
IC50 [4]: 0.024 µM
IC50 [5]: 0.095 µM
solubility [29]: 201 µM (≈ 122 µg/mL)
Structure (SMILES): O=C(c1nn(-c2ccccc2Cl)c(-c2ccc(Cl)cc2)c1Cc1nn[nH]n1)N1CCC(Oc2cccc(Cl)c2)CC1

IC50 [1]: 0.0048 µM
efflux ratio [6]: 1.3
chromatographic logD [2]: 2.6
Cmax [7]: 47 µM
bioavailability [10]: 88%
clearance [12]: 2.1 mL/min/kg
concentration at 6 h [13]: 10 µM
IC50 [3]: > 10 µM
concentration at 6 h [17]: 38 µM
concentration at 6 h [20]: 1.5 µM
Drug uptake [24]: ~ 1%
IC50 [4]: 0.0029 µM
IC50 [5]: 0.051 µM
concentration at 6 h [27]: 0.22 µM
Tmax [28]: 0.5 h
Drug uptake ([30]; in vivo, po, 10 mg/kg, 24 h, BLD = below limit of detection): Bld
Drug uptake [40]: 4%
Drug uptake [32]: 0.6%
fraction unbound [33]: < 0.01
half-life [35]: 2.2 h
Vd [36]: 0.6 L/kg
half-life [38]: 3.1 h
Structure (SMILES): O=C(O)Cc1c(C(=O)N2CCC(c3ccccc3F)CC2)nn(-c2ccccc2Cl)c1-c1ccc(Cl)cc1
Activity [11]: 6.4%

IC50 [1]: 0.0081 µM
chromatographic logD [2]: 2.7
IC50 [3]: > 10 µM
IC50 [4]: 0.0026 µM
IC50 [5]: 0.032 µM
Structure (SMILES): O=C(O)Cc1c(C(=O)N2CCC(c3cccc(F)c3)CC2)nn(-c2ccccc2Cl)c1-c1ccc(Cl)cc1

From ChEMBL document CHEMBL5356956, “Optimizing and characterizing 4-methyl substituted pyrazol-3-carboxamides leading to the peripheral cannabinoid 1 receptor inverse agonist TM38837” (Bioorg Med Chem Lett, 2024)
